Here are results for eight compounds from ChEMBL document CHEMBL3585332, “Antimalarial Isocyano and Isothiocyanato Sesquiterpenes with Tri- and Bicyclic Skeletons from the Nudibranch Phyllidia ocellata” (J Nat Prod, 2015).

The IC50 is the concentration needed to halve the response being measured.

The subject of assay [1] is Plasmodium falciparum. Kind of assay: Antimalarial activity against chloroquine-sensitive asynchronous Plasmodium falciparum 3D7 infected in erythrocytes assessed as parasite growth inhibition after 48 hrs by [3H]-hypoxanthine incorporation assay. The class given is functional, organism-based.
In assay [2] the test system is Plasmodium falciparum. Kind of assay: Antimalarial activity against drug-resistant asynchronous Plasmodium falciparum Dd2 infected in erythrocytes assessed as parasite growth inhibition at 10 uM after 48 hrs by [3H]-hypoxanthine incorporation assay relative to control. The class given is functional. The following applies: read-out: GI.
Assay [3] is described as follows: Selectivity ratio of IC50 for human NFF to IC50 for chloroquine-sensitive asynchronous Plasmodium falciparum 3D7.
The subject of assay [4] is Plasmodium falciparum. Nature of the assay: Antimalarial activity against drug-resistant asynchronous Plasmodium falciparum Dd2 infected in erythrocytes assessed as parasite growth inhibition after 48 hrs by [3H]-hypoxanthine incorporation assay. It counts as functional, organism-based.
Assay [5] can be described thus: Selectivity ratio of IC50 for human NFF to IC50 for drug-resistant asynchronous Plasmodium falciparum Dd2.

With `CC1(C)C=C(NC=O)[C@]23CCC[C@](C)(CC[C@@H]12)C3`, the IC50 with Plasmodium falciparum [1] is over 10000 nM. For the same compound, the inhibition of growth at 10 µM in the assay with Plasmodium falciparum [2] is under 50%.
In the case of `[C-]#[N+][C@@H]1CC(C)(C)[C@@H]2CC[C@@]3(C)CCC[C@@]12C3`, the Ratio IC50 in assay [3] and in assay [5] was 45 throughout. Further, the half-inhibitory concentration (IC50) in the assay on Plasmodium falciparum [1] stood at 290 nM; in the assay with Plasmodium falciparum [4], 830 nM. For the same compound, the inhibition of growth at 10 µM with Plasmodium falciparum [2] was 98.3%.
With `[C-]#[N+][C@]1(C)[C@H](C)C[C@@H]2C[C@H](C)[C@H]3CC[C@](C)([N+]#[C-])[C@H]4CC[C@H]1[C@@H]2[C@H]34` [DIISOCYANOADOCIANE], the inhibition of growth at 10 µM in the assay on Plasmodium falciparum [2] turned out to be 98.3%.
In the case of `[C-]#[N+][C@@H]1[C@H](C(C)C)CC[C@@H](C)[C@@]12C=C(C)CC2` [AXISONITRILE 3], in the assay with Plasmodium falciparum [2], the inhibition of growth at 10 µM was determined as 98.3%.
Turning to `[C-]#[N+][C@@H]1[C@H]2C(=C)CCC[C@]2(C)CC[C@H]1C(C)C`, the inhibition of growth at 10 µM in the assay on Plasmodium falciparum [2] is 98.3%.
For `[C-]#[N+][C@@H]1CCC(C)=C[C@@H]2[C@@H](C(C)C)CC[C@]21C`, the Ratio IC50 in assay [3] and in assay [5] was 45 in each case. In addition, the concentration for half-maximal inhibition (IC50) in the assay with Plasmodium falciparum [1] turned out to be 260 nM; in the assay on Plasmodium falciparum [4], 870 nM. In the assay on Plasmodium falciparum [2], the inhibition of growth at 10 µM was 98.3%.
As for `[C-]#[N+]C1=CC(C)(C)[C@@H]2CC[C@@]3(C)CCC[C@@]12C3`, the Ratio IC50 in assay [3] and in assay [5] was 45 throughout. The IC50 with Plasmodium falciparum [1] was 300 nM; in the assay on Plasmodium falciparum [4], 360 nM. Further, the inhibition of growth at 10 µM in the assay with Plasmodium falciparum [2] is 98.3%.
Consider `CC1(C)C[C@@H]2[C@H]1CC[C@@]1(C)CCC[C@]2(N=C=S)C1`, for which the half-inhibitory concentration (IC50) in the assay on Plasmodium falciparum [1] was over 10000 nM. The inhibition of growth at 10 µM with Plasmodium falciparum [2] is under 50%.
